Literature values in patent US11129865B2, “NEUPANEX®: neuroprotective, neuroregenerational, and neurogenesis supporting supplement combination” (priority 2017, dated 2021).

Assays:
[1] = test system: heme oxygenase-1; conditions: astrocytes
[2] = test system: heat shock protein 60; conditions: astrocytes
[3] = rodents, increased dietary cholesterol
[4] = supplementary dietary cholesterol
[5] = test system: IL-10
[6] = test system: hippocampal cell culture; conditions: pretreatment, low to moderate concentration (10 nm-100 nm) in culture medium; voltage clamp and toxic NMDA insult
[7] = test system: IL-6 and IL-1 alpha and TNF-alpha

Which “levels of heme oxygenase-1” value [1] does the source give for `CC(=O)O[C@H](CC(=O)[O-])C[N+](C)(C)C` [acetyl-L-carnitine] here?
The value was “increased levels of heme oxygenase-1 were induced in a dose- and time-dependent manner”.

What about the “heat shock protein 60 expression” value [2] of the same compound?
Its value is “up-regulation of heat shock protein 60”.

For `CC(C)CCC[C@@H](C)[C@H]1CC[C@H]2[C@@H]3CC=C4C[C@@H](O)CC[C@]4(C)[C@H]3CC[C@]12C` [cholesterol], which brain cholesterol [3] is on record?
The brain cholesterol was “dramatically increased brain cholesterol”.

And the “autistic behaviors of children with SLOS” value [4]?
The value was “reduced or even eliminated”.

With Vitamin D as the compound, how does the “Increases IL-10” value [5] read?
Its value is “Vitamin D: Increases IL-10 (43%), Decreases IL-6 & TNF-Alpha,”.

What about the “neuroprotective effect compared to controls” value [6] of the same compound?
Its value is “dramatic neuroprotective effect”.

What about the “reduction in inflammatory cytokines IL-6, IL-1 alpha and TNF-alpha, concentration dependence” value [7] of the same compound?
Its value is “lower concentrations of vitamin D were more effective than the higher concentrations”.
